Assay results as given in ChEMBL document CHEMBL1144925, “Binding structures and potencies of oxidosqualene cyclase inhibitors with the homologous squalene-hopene cyclase” (J Med Chem, 2003).

What was measured:
[1] = biological target: T1, Lanosterol synthase (Homo sapiens, UniProt P48449); experiment: Inhibitory activity against Oxidosqualene-lanosterol cyclase from human liver microsomes
T1 sequence (P48449 whole entry): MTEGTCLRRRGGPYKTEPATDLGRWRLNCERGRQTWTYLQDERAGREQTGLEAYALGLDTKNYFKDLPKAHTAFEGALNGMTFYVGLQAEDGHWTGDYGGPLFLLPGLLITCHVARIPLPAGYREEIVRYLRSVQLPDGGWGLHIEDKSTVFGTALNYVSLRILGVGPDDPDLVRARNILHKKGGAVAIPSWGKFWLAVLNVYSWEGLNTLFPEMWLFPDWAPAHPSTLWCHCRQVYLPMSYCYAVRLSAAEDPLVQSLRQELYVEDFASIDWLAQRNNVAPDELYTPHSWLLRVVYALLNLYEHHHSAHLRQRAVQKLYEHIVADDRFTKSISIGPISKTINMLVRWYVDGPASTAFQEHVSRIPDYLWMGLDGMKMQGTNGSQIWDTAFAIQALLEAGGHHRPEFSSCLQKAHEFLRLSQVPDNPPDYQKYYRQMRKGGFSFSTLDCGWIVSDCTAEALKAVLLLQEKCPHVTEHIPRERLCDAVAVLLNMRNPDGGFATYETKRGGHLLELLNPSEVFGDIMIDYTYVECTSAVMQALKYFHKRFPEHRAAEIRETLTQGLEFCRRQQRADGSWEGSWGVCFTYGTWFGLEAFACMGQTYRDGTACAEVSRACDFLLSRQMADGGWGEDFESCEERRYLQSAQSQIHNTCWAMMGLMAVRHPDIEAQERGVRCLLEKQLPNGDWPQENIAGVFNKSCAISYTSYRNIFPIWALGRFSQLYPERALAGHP

[2] = biological target: T2, Squalene--hopene cyclase (Alicyclobacillus acidocaldarius subsp. acidocaldarius (strain ATCC27009 / DSM 446 / 104-1A) (Bacillus acidocaldarius), UniProt P33247); experiment: Inhibitory activity against squalene hopene cyclase from Alicyclobacillus acidocaldarius
T2 sequence (P33247 whole entry): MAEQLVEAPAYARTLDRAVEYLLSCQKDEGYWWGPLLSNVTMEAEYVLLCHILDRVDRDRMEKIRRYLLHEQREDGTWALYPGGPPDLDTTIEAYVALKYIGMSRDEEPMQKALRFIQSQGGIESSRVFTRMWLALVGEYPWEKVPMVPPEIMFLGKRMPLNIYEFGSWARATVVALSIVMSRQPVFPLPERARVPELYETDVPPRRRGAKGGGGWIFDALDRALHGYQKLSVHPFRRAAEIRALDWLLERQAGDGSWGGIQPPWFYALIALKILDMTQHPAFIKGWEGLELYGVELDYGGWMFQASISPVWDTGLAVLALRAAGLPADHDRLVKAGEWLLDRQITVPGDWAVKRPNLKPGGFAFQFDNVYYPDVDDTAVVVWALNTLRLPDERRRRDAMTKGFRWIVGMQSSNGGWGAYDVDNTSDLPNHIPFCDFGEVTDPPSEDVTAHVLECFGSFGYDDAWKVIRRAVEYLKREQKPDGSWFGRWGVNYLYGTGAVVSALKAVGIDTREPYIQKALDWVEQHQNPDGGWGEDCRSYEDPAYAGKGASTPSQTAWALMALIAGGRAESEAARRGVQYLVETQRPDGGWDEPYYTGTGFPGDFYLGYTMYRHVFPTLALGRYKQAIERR

Compound | IC50 [1] | IC50 [2]
CN(C(=O)Oc1ccc(Cl)cc1)[C@H]1CC[C@H](c2ccc(C[N+]3([O-])CCCCC3)cc2)CC1 | 640 nM | 123 nM
CN(C[C@H]1C[C@@H]1COc1ccc(C(=O)c2ccc(Br)cc2)c(F)c1)C1CC1 | 439 nM | 50 nM
C=CCN(C)CCCCCCOc1ccc(-c2nsc3cc(Br)ccc23)cc1 | 1900 nM | –
C=CCN(C)CCCCCCOc1ccc2c(-c3ccc(Br)cc3)coc2c1 | 610 nM | –
CN(C[C@H]1C[C@@H]1COc1ccc(C(=O)c2ccc(Br)cc2)cc1)C1CC1 | 22 nM | 62 nM
C=CCN(C)Cc1ccc(-c2ccc(C(=O)c3ccc(Br)cc3)cc2)cc1 | 16 nM | –
C=CCN(C)C/C=C/COc1ccc2c(-c3ccc(Br)cc3)csc2c1 | 13.5 nM | 75 nM
C=CCN(C)C/C=C/COc1ccc2c(-c3ccc(Br)cc3)noc2c1 | 29 nM | 49 nM
C=CCN(C)CCCCCCOc1ccc2c(-c3ccc(Br)cc3)n[nH]c2c1 | 39 nM | –
C=CCN(C)CCCCCCOC1CCN(C(=O)c2ccc(F)cc2)CC1 | 71 nM | 1200 nM
CN(C(=O)Oc1ccc(Cl)cc1)[C@H]1CC[C@H](c2ccc(CN3CCCCC3)cc2)CC1 | 11.3 nM | –

Other lines, results leading:

IC50 [1] | IC50 [2] | Compound
48 nM | 760 nM | CN(CCCCCCOC1CCN(C(=O)c2ccc(F)cc2)CC1)C1CC1
98 nM | 38 nM | CN(CCCCCCOc1ccc(C(=O)c2ccc(Br)cc2)c(F)c1)C1CC1
223 nM | – | C=CCN(C[C@H]1C[C@@H]1COc1ccc(C(=O)c2ccc(Br)cc2)cc1)C1CC1
240 nM | 332 nM | C=CCN(C)CCCCCCOc1ccc2c(C)nn(C)c2c1
380 nM | 75 nM | C=CCN(C)CCCCCCOc1ccc2c(-c3ccc(Br)cc3)noc2c1
5.4 nM | 96 nM | C=CCN(C)CCCCCCOc1ccc(C(=O)c2ccc(Br)cc2)cc1
36 nM | 2800 nM | O=C(c1ccc(Cl)cc1)N1CCC(=Cc2ccc(C3=NCCO3)cc2)CC1
3 nM | 40 nM | C=CCN(C)C/C=C/COc1ccc(C(=O)c2ccc(Br)cc2)cc1
1860 nM | 130 nM | C=CCN(C)C/C=C/COc1ccc(-c2nsc3cc(Br)ccc23)cc1
3.5 nM | – | C=CCN(C)CCCCCCOc1ccc2c(-c3ccc(Br)cc3)nccc2c1
500 nM | – | C=CCN(C)C/C=C/COc1ccc2c(-c3ccc(Br)cc3)coc2c1
19.6 nM | – | C=CCN(C)CCCCCCOc1ccc2c(-c3ccc(Br)cc3)nn(C)c2c1
4.1 nM | 172 nM | C=CCN(C)CCCCCCOc1ccc2c(c1)CON=C2c1ccc(Br)cc1
2.9 nM | – | C=CCN(C)CCCCCCOc1ccc2c(-c3ccc(Br)cc3)nsc2c1
